Results reported in patent publication US10316017B2, “COT modulators and methods of use thereof” (Gilead Sciences, Inc., priority 2015, dated 2019).

Tests used:
[1] = tested on: TNFα production in LPS-stimulated human monocytes; experiment: Cot Monocyte TNFα Cell Based Assay; settings: Homo sapiens, Monocyte, LPS-stimulated human monocytes, TNFα TR-FRET; read-out: EC50 TNF
Method in brief: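 TNFα release quantified by two-antibody TR-FRET, normalised to unstimulated (0%) and LPS-stimulated (100%) wells. Cells got a 1 h compound exposure at 37° C in 0.5% DMSO before 4 h challenge with 50 pg/ml LPS, at 5,000 cells/well.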

[2] = target: T1, human Cot catalytic domain (30-397 amino acids) (Homo sapiens, UniProt P41279); experiment: High Throughput Cot Biochemical Assay (KinEASE TR-FRET); settings: Cot KinEASE TR-FRET, 400 μM ATP; read-out: IC50 HTRF
T1 construct: Purified recombinant human Cot catalytic domain (30-397 amino acids) was purchased from Cama Biosciences; purchased Cama Biosciences (so in the source)
T1 sequence (P41279 30-397): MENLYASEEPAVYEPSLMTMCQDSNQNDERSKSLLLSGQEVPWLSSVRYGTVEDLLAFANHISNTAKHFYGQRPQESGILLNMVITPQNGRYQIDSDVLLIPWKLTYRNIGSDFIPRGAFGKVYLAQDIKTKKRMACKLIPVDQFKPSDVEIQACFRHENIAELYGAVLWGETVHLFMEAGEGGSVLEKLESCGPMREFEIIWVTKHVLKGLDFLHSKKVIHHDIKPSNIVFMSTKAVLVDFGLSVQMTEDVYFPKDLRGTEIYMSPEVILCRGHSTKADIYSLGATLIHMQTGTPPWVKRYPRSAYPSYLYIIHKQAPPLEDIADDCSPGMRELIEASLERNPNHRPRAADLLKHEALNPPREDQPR
Method in brief: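 TR-FRET (KinEASE) read-out: Eu-labelled phospho-specific antibody binds XL665-tagged STK3 peptide (1 μM) phosphorylated by 5 nM human Cot kinase domain (residues 30-397). Reaction at 400 μM ATP, pH 7.0 MOPS buffer with 10 mM MgOAc, 1 mM DTT and 0.1% DMSO.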

SMILES | EC50 [1] | IC50 [2]
N#CCC[C@@H](Nc1c(C#N)cnc2c(C#N)cc(N[C@@H](c3ccccc3)c3cn(C4CC4)nn3)cc12)c1ccccc1 [Example 949, 4-(((R)-3-cyano-1-phenylpropyl)amino)-6-(((S)-(1-cyclopropyl-1H-1,2,3-triazol-4-yl)(phenyl)methyl)amino) quinoline-3,8-dicarbonitrile] | 19 nM | 1 nM
[2H][C@](Nc1cc(-c2cncnc2)c2ncc(C#N)c(N[C@H](CCC(=O)O)c3ccccc3)c2c1)(c1ccc(F)cc1)c1cn(C2CC2)nn1 [Example 950, (R)-4-((3-cyano-6-(((S)-(1-cyclopropyl-1H-1,2,3-triazol-4-yl)(4-fluorophenyl)methyl-d)amino)-8-(pyrimidin-5-yl)quinolin-4-yl)amino)-4-phenylbutanoic acid] | ≥ 1000 nM | ≥ 10000 nM
[2H][C@@](Nc1cc(-c2cncnc2)c2ncc(C#N)c(N[C@H](CCC(=O)O)c3ccccc3)c2c1)(c1cn(C2CC2)nn1)c1ccccc1Cl [Example 951, (R)-4-((6-(((S)-(2-chlorophenyl)(1-cyclopropyl-1H-1,2,3-triazol-4-yl)methyl-d)amino)-3-cyano-8-(pyrimidin-5-yl)quinolin-4-yl)amino)-4-phenylbutanoic acid] | ≥ 1000 nM | ≥ 10000 nM
CC(C)(C)CNc1c(C#N)cnc2c(C#N)cc(N[C@H](c3cn(C4(C#N)CCC4)nn3)c3ccccc3Cl)cc12 [Example 952, (S)-6-(((2-chlorophenyl)(1-(1-cyanocyclobutyl)-1H-1,2,3-triazol-4-yl)methyl)amino)-4-(neopentylamino)quinoline-3,8-dicarbonitrile] | 134 nM | 8 nM
[2H][C@@](Nc1cc(I)c2ncc(C#N)c(NCC(C)(C)C)c2c1)(c1cn(C2CC2)nn1)c1ccccc1Cl [Example 953, (S)-6-(((2-chlorophenyl)(1-cyclopropyl-1H-1,2,3-triazol-4-yl)methyl-d)amino)-8-iodo-4-(neopentylamino)quinoline-3-carbonitrile] | ≥ 1000 nM | 111 nM
CCN1CCC(n2cc([C@@H](Nc3cc(Cl)c4ncc(C#N)c(NCC(C)(C)C)c4c3)c3ccc(Cl)cc3)nn2)CC1 [Example 954, (S)-8-chloro-6-(((4-chlorophenyl)(1-(1-ethylpiperidin-4-yl)-1H-1,2,3-triazol-4-yl)methyl)amino)-4-(neopentylamino)quinoline-3-carbonitrile] | 130 nM | 5 nM
CCN1CCC(n2cc([C@@H](Nc3cc(Cl)c4ncc(C#N)c(N[C@H](CCC#N)c5ccccc5)c4c3)c3ccc(Cl)cc3)nn2)CC1 [Example 955, 8-chloro-6-(((S)-(4-chlorophenyl)(1-(1-ethylpiperidin-4-yl)-1H-1,2,3-triazol-4-yl)methyl)amino)-4-(((R)-3-cyano-1-phenylpropyl)amino)quinoline-3-carbonitrile] | 31 nM | 2 nM
CC(C)(C)CNc1c(C#N)cnc2c(C#N)cc(N[C@H](c3cn(C4(C#N)CC4)nn3)c3ccccc3Cl)cc12 [Example 956, (S)-6-(((2-chlorophenyl)(1-(1-cyanocyclopropyl)-1H-1,2,3-triazol-4-yl)methyl)amino)-4-(neopentylamino)quinoline-3,8-dicarbonitrile] | 61 nM | 5 nM
CC(C)(C)CNc1c(C#N)cnc2c(C#N)cc(N[C@H](c3cn(C4(C(N)=O)CC4)nn3)c3ccccc3Cl)cc12 [Example 957, (S)-1-(4-((2-chlorophenyl)((3,8-dicyano-4-(neopentylamino)quinolin-6-yl)amino)methyl)-1H-1,2,3-triazol-1-yl)cyclopropane-1-carboxamide] | 170 nM | 3 nM
[2H]C(Nc1cc(Cl)c2ncc(C#N)c(NCC(C)(C)C)c2c1)(c1cn(C2(C3CC3)CC2)nn1)c1ccccc1Cl (stereo not drawn) [Example 958, 6-(((1-([1,1'-bi(cyclopropan)]-1-yl)-1H-1,2,3-triazol-4-yl)(2-chlorophenyl)methyl-d)amino)-8-chloro-4-(neopentylamino)quinoline-3-carbonitrile] | 460 nM | 31 nM
[2H][C@@](Nc1cc(Cl)c2ncc(C#N)c(NCC(C)(C)C)c2c1)(c1cn(C2(c3cccnc3)CC2)nn1)c1ccccc1Cl [Example 960, 8-chloro-6-(((2-chlorophenyl)(1-(1-(pyridin-3-yl)cyclopropyl)-1H-1,2,3-triazol-4-yl)methyl-d)amino)-4-(neopentylamino)quinoline-3-carbonitrile] | 86 nM | 12 nM
N#CCC[C@@H](Nc1c(C#N)cnc2c(C#N)cc(N[C@@H](c3ccccc3)c3cn(C4(C#N)CC4)nn3)cc12)c1ccccc1 [Example 961, 4-(((R)-3-cyano-1-phenylpropyl)amino)-6-(((S)-(1-(1-cyanocyclopropyl)-1H-1,2,3-triazol-4-yl)(phenyl)methyl)amino) quinoline-3,8-dicarbonitrile] | 21 nM | 1 nM
CC(C)(C)CNc1c(C#N)cnc2c(C#N)cc(N[C@H](c3cn(C4(C)CC4)nn3)c3ccccc3Cl)cc12 [Example 962, (S)-6-(((2-chlorophenyl)(1-(1-methylcyclopropyl)-1H-1,2,3-triazol-4-yl)methyl)amino)-4-(neopentylamino)quinoline-3,8-dicarbonitrile] | 116 nM | 7 nM
CC(C)(C)CNc1c(C#N)cnc2c(C#N)cc(N[C@H](c3cn(CC(N)=O)nn3)c3ccccc3Cl)cc12 [Example 963, (S)-2-(4-((2-chlorophenyl) ((3,8-dicyano-4-(neopentylamino)quinolin-6-yl)amino)methyl)-1H-1,2,3-triazol-1-yl)acetamide] | 777 nM | 3 nM

Further lines, results first:

EC50 [1] | IC50 [2] | SMILES
286 nM | 14 nM | [2H][C@](Nc1cc(Cl)c2ncc(C#N)c(NCC(C)(C)C)c2c1)(c1cn(C2(CO)COC2)nn1)c1ccccc1Cl [Example 965, 8-chloro-6-(((2-chlorophenyl) (1-(3-(hydroxymethyl)oxetan-3-yl)-1H-1,2,3-triazol-4-yl)methyl-d)amino)-4-(neopentylamino) quinoline-3-carbonitrile]
≥ 1000 nM | 86 nM | [2H][C@](Nc1cc(Cl)c2ncc(C#N)c(Nc3cccc(Cl)c3OC(F)(F)F)c2c1)(c1ccc(F)cc1)c1cn(C2CC2)nn1 [Example 966, (S)-8-chloro-4-((3-chloro-2-(trifluoromethoxy)phenyl)amino)-6-(((1-cyclopropyl-1H-1,2,3-triazol-4-yl)(4-fluorophenyl)methyl-d)amino)quinoline-3-carbonitrile]
≥ 1000 nM | 714 nM | [2H][C@](Nc1cc(Cl)c2ncc(C#N)c(NC3(C(F)F)CC3)c2c1)(c1ccc(F)cc1)c1cn(C2CC2)nn1 [Example 967]
110 nM | 17 nM | CC(C)(C)CNc1c(C#N)cnc2c(C#N)cc(N[C@@H](c3ccc(F)cc3)c3cn(C4(c5ccccn5)CC4)nn3)cc12 [Example 968, (S)-6-(((4-fluorophenyl)(1-(1-(pyridin-2-yl)cyclopropyl)-1H-1,2,3-triazo1-4-yl)methyl)amino)-4-(neopentylamino) quinoline-3,8-dicarbonitrile]
≥ 1000 nM | 1 nM | [2H]C(Nc1cc(C#N)c2ncc(C#N)c(NCC(C)(C)C)c2c1)(c1cccc(C#N)c1)c1cn(C2(C(N)=O)CC2)nn1 (stereo not drawn) [Example 969, 1-(4-((3-cyanophenyl)((3,8-dicyano-4-(neopentylamino)quinolin-6-yl)amino)methyl-d)-1H-1,2,3-triazol-1-yl)cyclopropane-1-carboxamide]
202 nM | 8 nM | CC(C)(C)CNc1c(C#N)cnc2c(Cl)cc(N[C@@H](c3ccccc3)c3cn(C(F)(F)C(N)=O)nn3)cc12 [Example 970, (S)-2-(4-(((8-chloro-3-cyano-4-(neopentylamino)quinolin-6-yl)amino)(phenyl)methyl)-1H-1,2,3-triazol-1-yl)-2,2-difluoroacetamide]
270 nM | 4 nM | [2H][C@](Nc1cc(Cl)c2ncc(C#N)c(NCC(C)(C)C)c2c1)(c1cccc(C#N)c1)c1cn(C(F)(F)C(N)=O)nn1 [Example 971, (S)-2-(4-(((8-chloro-3-cyano-4-(neopentylamino)quinolin-6-yl)amino)(3-cyanophenyl)methyl-d)-1H-1,2,3-triazol-1-yl)-2,2-difluoroacetamide]
636 nM | 27 nM | CC[C@@H](Nc1c(C#N)cnc2c(Cl)cc(N[C@H](c3cn(C(F)(F)C(N)=O)nn3)c3ccccc3Cl)cc12)c1ccccc1 [Example 972, 2-(4-((S)-((8-chloro-3-cyano-4-(((R)-1-phenylpropyl)amino)quinolin-6-yl)amino) (2-chlorophenyl)methyl)-1H-1,2,3-triazol-1-yl)-2,2-difluoroacetamide]
67 nM | 9 nM | CC(C)(C)CNc1c(C#N)cnc2c(C#N)cc(N[C@@H](c3ccc(F)cc3)c3cn(C4(C5CC5)CC4)nn3)cc12 [Example 973, (S)-6-(((1-([1,1'-bi (cyclopropan)]-1-yl)-1H-1,2,3-triazol-4-yl)(4-fluorophenyl)methyl)amino)-4-(neopentylamino) quinoline-3,8-dicarbonitrile]
46 nM | 46 nM | CC(C)(C)CNc1c(C#N)cnc2c(C#N)cc(N[C@@H](c3ccc(F)cc3)c3cn(C4(c5cccnc5)CC4)nn3)cc12 [Example 974, (S)-6-(((4-fluorophenyl)(1-(1-(pyridin-3-yl)cyclopropyl)-1H-1,2,3-triazol-4-yl)methyl)amino)-4-(neopentylamino) quinoline-3,8-dicarbonitrile]
